From patent US8071552B2, “Peptides and peptidomimetics binding to CD23” (Universite Bordeaux 2, priority 2004, dated 2011)
Values joined by “and” are separate entries in the source; they are usually repeats but may differ in a detail not shown here. Equal values may be shown once. No end group written: not given here.

What was measured:
[1] = tested on: Monocyte-derived macrophages (CD23+); experiment: Quantification of inflammatory response: nitrites (Greiss) from CD23-activated human macrophages, % inhibition relative to controls; format: cell-based; settings: human macrophages activated through CD23
Description: Monocytes are isolated from normal human peripheral blood. Samples are collected from normal volunteers (20-50 years) by blood bank. They are all tested for the absence of HIV or HBV contaminations prior to use. Human normal mononuclear cells are obtained by Ficoll (Histopaque, Sigma) gradient separation of peripheral blood leukocytes. Monocytes are separated from lymphocytes by adherence to plastic dishes coated with fetal calf serum (FCS) as described (Vouldoukis I., et al., Proc. Natl. Acad. Sci. USA., 92: 7804-7808 1995). Following this procedure, >90% of cells express CD14 antigen and display cytochemical characteristics of monocytes. The cells are then incubated in DMEM supplemented with L-non-essential amino acids, sodium pyruvate, glutamine, penicillin, streptomycin, and 10% FCS (all from Gibco Laboratories, Grand Island, N.Y.). Above culture medium, chemicals, and FCS are tested for the absence of direct activation effect on human monocytes (CD23 expression and TNF-α production as activation markers). Following 24-48 hr adherence to culture flasks, these cells differentiate into macrophage-like cells displaying non-specific esterase activity that is inhibited by sodium fluoride.
Normal human donor-derived adherent cells have low if any surface CD23 expression and are designated in the present work as macrophages. CD23 expression is obtained following cell incubation with recombinant human interleukin 4 ([…]). […] Tissue-derived macrophages are mostly CD23^+.
Monocyte-derived macrophages (CD23^+) are activated through the cross-linking of their CD23 surface molecules by appropriate MoAb (20 μg/ml, clone 135, IgG1κ isotype) or by human IgE/anti-IgE complexes (IgE, Stallergene, Paris, France; goat anti-human-IgE, Nordic Immunology, Tilburg, The Netherlands). This activation pathway promotes the activation of iNOS mRNA transcription and the generation, by macrophages, of various inflammatory mediators such as nitric oxide (NO), TNF-α, reactive oxygen radicals, IL-1, and IL-6 (for, a review see: Dugas B, et al., Immunol Today, 16:574-580(1995)).
Following 1-3 day incubation at 37° C., 5% CO2 in humid atmosphere, macrophages are analyzed for their inflammatory response as following:
48-96 hr incubation: Collection of supernatants for the detection of cytokines and nitrites. Nitrites are quantified by Greiss method (Davies et al., Methods in Molecular Biology, 225:305-320, 2003) while IL-1, IL-6 and TNF-α: were quantified using commercial ELISA kits. The following antibodies and reagents were utilized:
Following quantitation of nitrites, a percentage inhibition relative to controls is calculated.

CD23+ cells [2] = experiment: Inhibition of NO generation from activated macrophages (nitrites by Greiss reaction); format: cell-based, human; settings: peptide 4 hours, then IgE/anti-IgE; 3-5 day incubation
Method: (§1) For inflammatory functions, cells are pre-incubated with CD23-counterstructures during 4 hours prior to their incubation with CD23-MoAb or IgE/anti-IgE complexes. Cell supernatants are collected 2-4 days later and tested for their contents in various mediators.
Inflammatory responses of human macrophages almost correlated with in vivo generation of nitric oxide by these cells. We use this inflammatory mediator as a marker of cell activation.
(§2) CD23^+ cells are incubated in the presence or the absence of an inhibitory peptide (p30A) for 4 hours. CD23-MoAb or IgE/anti-IgE immune complexes are added. Following 3-5 day incubation, cell supernatants are harvested and the level of nitrites quantified by Greiss reaction (Davies et al., Methods in Molecular Biology, 225:305-320, 2003).

[3] = tested on: macrophages derived from synovial fluid of patients with Rheumatoid Arthritis; experiment: NO generation by macrophages derived from synovial fluid of patients with Rheumatoid Arthritis; format: cell-based, human; settings: RA synovial fluid macrophages
Method: as §2, with “[…])” for “(p30A)”, “2003). The effect of CD23-Peptide or a negative control on inflammatory functions of macrophages derived from synovial fluid of patients with Rheumatoid Arthritis is also investigated.” for “2003).”

[4] = tested on: rat peritoneal macrophages and rat peripheral macrophages; experiment: NO production from rat peritoneal and peripheral macrophages induced by IgE/DNP-BSA; format: cell-based; settings: peptide 4 hours, 3-5 day incubation
Method: NO production from rat peritoneal macrophages and rat peripheral macrophages is also determined. Peritoneal macrophages are highly CD23^+ and produce much higher quantities of pro-inflammatory mediators compared to peripheral blood-derived cells. CD23^+ cells are incubated in the presence or the absence of an inhibitory peptide (p30A) for 4 hours. IgE/DNP-BSA is added to induce CD23 cross-linking. L-NIL is a specific inhibitor of NOS-II. Pep− is a negative control peptide. Following 3-5 day incubation, cell supernatants are harvested and the level of nitrites quantified by Greiss reaction (Davies et al., Methods in Molecular Biology, 225:305-320, 2003).

CD23+ cells [5] = experiment: Inhibition of TNF-α generation from activated macrophages (ELISA); format: cell-based, human
Method: as §1
In addition to NO, the effect of peptides on the production of TNF-α, a well-documented effector factor during inflammatory diseases, is also tested.
(§3) CD23^+ cells are incubated in the presence or the absence of an inhibitory peptide (p30A) for 4 hours. CD23-MoAb or IgE/anti-IgE immune complexes are added. Following 3-5 day incubation, cell supernatants are harvested and the level of TNF-α, quantified by specific ELISA.

[6] = tested on: macrophages derived from peripheral blood or the synovial fluid of patients with Rheumatoid Arthritis; experiment: TNF-α generation by macrophages from peripheral blood or synovial fluid of patients with Rheumatoid Arthritis; format: cell-based, human; settings: for level of TNF-α: p30A + CD23-Ab
Method: as §3, with “ELISA. The effect of CD23-Peptide or a negative control on inflammatory functions of macrophages derived from peripheral blood or the synovial fluid of patients with Rheumatoid Arthritis is also investigated.” for “ELISA.”

arthritic rats = experiment: Treatment of arthritic rats (Mycobacterium butyricum-induced arthritis); format: in vivo, Lewis rats
Method: On day 0, 6-week old female Lewis rats weighing 145-155 g are injected subcutaneously with an arthritis-inducing emulsion. The rats are injected with 300 μl of the emulsion which contains: • 2 mg/rat heat-inactivated Mycobacterium butyricum diluted into; • 240 μl of Vaseline; • 30 μl of Tween-20; and • 30 μl of PBS.
The immunization step is repeated on day 7. The rats present arthritis signs by days 15 have to 21. Arthritic signs are assigned a clinical score (1-4). By day 40, the clinical scores increase from 1 to 3 or 4. Slower weight progression is also observed in immunized rats (FIG. 1a).
However, subcutaneous injection of 5 mg of p30A after the appearance of clinical signs results in complete remission of arthritic symptoms for 50% of the rats (FIG. 1b) as well as decreased clinical scores in 25% of the remaining rats.

[7] = tested on: Adjuvant arthritis (AA) rats; experiment: In vivo prevention and treatment of adjuvant arthritis in rats with p30A; design: species or system Lewis rats
Method: Each group of animals comprises eight rats. Female Lewis rats (Janvier, Le Genest St Isle, France) are housed under standard laboratory conditions and the animals are allowed free access to food and water. The temperature is kept at 22±2° C. and a 12-hour light/dark schedule is maintained. All animal procedures are performed in strict accordance with the guidelines issued by the European Economic Community “86/609”. Adjuvant arthritis (AA) is induced in six weeks-old animals by subcutaneous injection at the base of the tail of 300 μl (1.8 mg) of inactivated Mycobacterium butyricum (Difco Laboratories, Detroit, Mich.) diluted in emulsion of 8 ml Vaseline, 1 ml polysorbate 80, and 1 ml PBS (Phosphate Buffer Saline, BioWhittaker, Walkersville, Md.). Rats are boosted one week later with the same dose of antigen and observed for up to 50 days following immunization for clinical symptoms of arthritis. Evaluation of AA severity is performed by two independent observers with no knowledge of the treatment protocol. The severity of AA in each paw is quantified daily by a clinical score measurement from 0 to 2 as following: no signs of inflammation (0); swelling alone (>2 fold paw diameter) (0.5) or swelling/immobility (1.0) of one paw; swelling (1,5) or swelling/immobility (2,0) of two paws. Weight evolution of the animals is measured daily. Rats are injected with peptides or peptidomimetics (dissolved in 0.1% DMSO) I.C. every two days (day 0, 2, 4, 6, and 8) during the initiation of inflammation (preventive) or following the appearance of the inflammatory signs. As negative control, rats are injected with saline.
Clinical scores are determined as described above, and the cumulative clinical score is plotted against days post-immunization (FIGS. 2, 3, and 4).
In each of FIGS. 2, 3, and 4, arrows below the x-axis indicate the days on which IC injections were administered.

[8] = Peripheral Macrophages of RA patients
[9] = subcutaneous injection of 5 mg after the appearance of clinical signs

## Ac N W BetaA CO2H [Compound 410]
[1]
  % Inhibition (nitrites relative to controls; inhibition of iNOS production): 61%

## Ac N W CO2H [Compound 411]
[1]
  % Inhibition (nitrites relative to controls; inhibition of iNOS production): 84%

## Ac n w CO2H [Compound 492]
[1]
  % Inhibition (nitrites relative to controls; inhibition of iNOS production): 77%

## Ac w n CO2H [Compound 491]
[1]
  % Inhibition (nitrites relative to controls; inhibition of iNOS production): 94%

## F H E N W beta A S [Compound 328]
[1]
  % Inhibition (nitrites relative to controls; inhibition of iNOS production): 26%

## FHENWPS [p30A]
CD23+ cells [2]
  level of nitrites [NO2-]: 2.6 µM and 1.4 µM
[3]; peptide + CD23-Ab
  level of nitrites [NO2-]: 7.9 µM and 9.5 µM
[3]; peptide alone (no CD23-Ab)
  level of nitrites [NO2-]: 8.5 µM and 10.3 µM
[4]
  IgE/DNP-BSA-induced NO production by macrophages: inhibits IgE/DNP-BSA-induced NO production
CD23+ cells [5]; p30A + CD23-Ab versus CD23-Ab
  % Inhibition of TNF-α: 47% and 54%
CD23+ cells [5]; peptide 4 hours, then CD23-Ab, 3-5 day incubation
  level of TNF-α: 77 pg TNF-α/ml and 89 pg TNF-α/ml
[6]; [8]
  % Inhibition of TNF-α: 73%
  level of TNF-α: 40 pg TNF-α/ml
[6]; SF Macrophages of RA patients
  % Inhibition of TNF-α: 41%
  level of TNF-α: 140 pg TNF-α/ml
Arthritic rats; intraperitoneal injection or intravenous treatment
  remission of the arthritic condition: do not induce remission
Arthritic rats; subcutaneous injection of 5 mg
  remission of arthritis (FIG. 1b): results in remission
Arthritic rats; [9]
  complete remission of arthritic symptoms: 50 % of the rats
  decreased clinical scores: 25 % of the remaining rats
Arthritic rats; unique injection (intraperitoneal or subcutaneous) at day 0
  arthritis appearance: no affect on arthritis appearance
[7]; injections every two days from immunization, two dosage regimes, versus control rats
  cumulative clinical score, preventive treatment (FIG. 2): clearly superior clinical scores compared to control rats
[7]; rats with arthritic symptoms, versus untreated arthritic rats
  weight gain (FIG. 4): produced weight gain
[7]; treated from day of first symptoms, 3 dosage regimes, versus control rats
  cumulative clinical score, therapeutic treatment (FIG. 3): clear therapeutic effect

## G[allyl-] N W G[allyl-] S [Compound 490]
[1]
  % Inhibition (nitrites relative to controls; inhibition of iNOS production): 81%

## H E N W S [Compound 437]
[1]
  % Inhibition (nitrites relative to controls; inhibition of iNOS production): 56%

## H E N W Sar S [Compound 398]
[1]
  % Inhibition (nitrites relative to controls; inhibition of iNOS production): 74%

## NH2 G[allyl-] N W G[allyl-] [Compound 489]
[1]
  % Inhibition (nitrites relative to controls; inhibition of iNOS production): 62%
